Consider 11 compounds from US10638755B2, “Antimicrobial compositions” (Symrise AG, priority 2013, dated 2020).

Assay [1] deals with Staphylococcus aureus. Nature of the assay: Minimum inhibitory concentration (MIC) according to DIN 58940 and Kull Synergy Index. In kind it is cell-based. Particulars: for MIC: Staphylococcus aureus.
For assay [2], the system named is Candida albicans. Described as above. Format: cell-based. Particulars: for MIC: Candida albicans.
Assay [3] has as its system Aspergillus brasiliensis. The assay is described as above. Format: cell-based. Particulars: for MIC: Aspergillus brasiliensis.
Assay [4] concerns Pseudomonas aeruginosa. The assay is described as above. The following applies: for MIC: Pseudomonas aeruginosa. In kind it is cell-based.
The subject of assay [5] is Escherichia coli. The assay is described as above. Format: cell-based. The following applies: for MIC: Escherichia coli.
The subject of assay [6] is A. brasiliensis. Nature of the assay: Colony counts in formulation over 28 days and Kull Synergy Index against A. brasiliensis. In kind it is cell-based, Aspergillus brasiliensis. The source says: To calculate the synergism between compounds of formula (I) and other antimicrobial actives, the Kull equation^1 2 was used SI=(Cmixture×PA)/CA+(Cmixture×PB)/CB (I) where • SI is the Synergy Index according to Kull^1), 2) • CA is the cell count for substance A • CB is the cell count for substance B • Cmixture is the cell count for the mixture of substances A and B • PA is the proportion of the substance A in the mixture • PB is the proportion of the substance B in the mixture.
Colony counts of <100 were arbitrarily set to 100, in order to allow for synergy calculations with the above equation. The abbreviation “n.a.” means not applicable.

Assay [7] concerns mold. The following applies: moist alfalfa hay; Agronomy Journal 1955; cited from earlier work.
Assay [8] deals with subcuteaneous inflammation. Particulars: administered intraperitoneally; Il Farmaco 2000; cited from earlier work.
The conditions of assay [9]: chemical in vitro assay; constituents of Tagetes mendocina; cited from earlier work.
Where [10] appears, read: day 0, 1.0% (total) in formulation.
The mark [11] stands for this setting: day 2, 1.0% (total) in formulation.
[12] abbreviates: day 7, 1.0% (total) in formulation.
Setting [13] is: day 14, 1.0% (total) in formulation.
[14] abbreviates: day 28, 1.0% (total) in formulation.

Molecules are shown by their SMILES. Like-named read-outs stand apart in the source and are kept apart here. A value given as a limit tells only on which side of the number the result lay.

For `CCCCCCC(O)CO` (stereo not drawn) [1,2-Octanediol], the MIC stood at 5000 µg/mL in assay [1] (DIN 58940); 5000 µg/mL in [2] (DIN 58940); 1000 µg/mL in assay [3] (DIN 58940); 5000 µg/mL in assay [4] (DIN 58940); 2500 µg/mL in assay [5] (DIN 58940).
Take `OCCCO` [1,3-Propanediol]: in assay [1] (DIN 58940), the “MIC values Staphylococcus aureus” value turned out to be 125000 ppm. Moreover, the “MIC values Candida albicans” value in [2] (DIN 58940) was 100000 ppm. In addition, the “MIC values Aspergillus brasiliensis” value in [3] (DIN 58940) is reported as 150000 ppm. The “MIC values Pseudomonas aeruginosa” value in assay [4] (DIN 58940) was 100000 ppm. The “MIC values Escherichia coli” value in [5] (DIN 58940) is on record as 100000 ppm.
Turning to `OCCCc1ccccc1` [3-Phenylpropanol], the MIC in assay [1] (DIN 58940) worked out at 2000 µg/mL; in [2] (DIN 58940), 5000 µg/mL; in [3] (DIN 58940), 2000 µg/mL; in [4] (DIN 58940), 2000 µg/mL; in [5] (DIN 58940), 2000 µg/mL.
Regarding `CCCCCCCOCC(O)CO` (stereo not drawn) [3HOPD, 3-heptyloxy-1,2-propanediol], the Colony counts is 220.000 cfu/g formulation in assay [6] (setting [10]); 320.000 cfu/g formulation in assay [6] (setting [11]); 340.000 cfu/g formulation in assay [6] (setting [12]); 300.000 cfu/g formulation in assay [6] (setting [13]); 170.000 cfu/g formulation in assay [6] (setting [14]). Besides, the Relative colony counts in [6] (setting [10]) is on record as 1.0000; in [6] (setting [11]) it was 1.4545; in assay [6] (setting [12]), 1.5455; in assay [6] (setting [13]), 1.3636; in assay [6] (setting [14]), 0.7727.
With `CC(=O)c1ccc(O)cc1` [4HAP, 4-hydroxyacetophenone], the Colony counts is listed as 300.000 cfu/g formulation in [6] (setting [10]); 56.000 cfu/g formulation in [6] (setting [11]); 1.900 cfu/g formulation in assay [6] (setting [12]); 1.900 cfu/g formulation in assay [6] (setting [13]); under 100 cfu/g formulation in [6] (setting [14]). The Relative colony counts is on record as 1.0000 in assay [6] (setting [10]); 0.1867 in [6] (setting [11]); 0.0063 in assay [6] (setting [12]); 0.0063 in [6] (setting [13]); 0.0003 in [6] (setting [14]). Moreover, the minimal inhibitory concentration (MIC) was determined as 6000 µg/mL in assay [1] (DIN 58940); 6000 µg/mL in assay [2] (DIN 58940); 4000 µg/mL in assay [3] (DIN 58940); 4000 µg/mL in assay [4] (DIN 58940); 4000 µg/mL in assay [5] (DIN 58940). The “prevention of mold growth” value in assay [7] is listed as “not prevent mold growth”. Moreover, the anti-inflammatory activity result in assay [8] is reported as “reducing subcuteaneous inflammation”. The antioxidant activity entry in assay [9] is reported as “one of the active constituents”.
On to `OCC(O)COCc1ccccc1` (stereo not drawn) [Benzylglycerin], for which the “MIC values Staphylococcus aureus” value in [1] (DIN 58940) is reported as 20000 ppm. Besides, the “MIC values Candida albicans” value in [2] (DIN 58940) is recorded as 20000 ppm. Further, the “MIC values Aspergillus brasiliensis” value in assay [3] (DIN 58940) stood at 20000 ppm. Besides, in assay [4] (DIN 58940), the “MIC values Pseudomonas aeruginosa” value was determined as 20000 ppm. Moreover, the “MIC values Escherichia coli” value in assay [5] (DIN 58940) amounted to 10000 ppm.
As for `CCCCC(CC)COCC(O)CO` (stereo not drawn) [EHG, ethylhexyl glycerin], the Colony counts came to 315.000 cfu/g formulation in assay [6] (setting [10]); 159.000 cfu/g formulation in assay [6] (setting [11]); 150.000 cfu/g formulation in [6] (setting [12]); 304.000 cfu/g formulation in [6] (setting [13]); 304.000 cfu/g formulation in [6] (setting [14]). In addition, the Relative colony counts in assay [6] (setting [10]) turned out to be 0.5048; in [6] (setting [11]), 0.4762; in [6] (setting [12]), 0.9635; in [6] (setting [13]), 0.9635; in [6] (setting [14]) it was 0.5048. Further, in assay [1], the “MIC values Staphylococcus aureus” value came to 2000 ppm. The “MIC values Candida albicans” value in assay [2] is recorded as 2000 ppm. Moreover, the “MIC values Aspergillus brasiliensis” value in assay [3] was 2000 ppm. Also, the “MIC values Pseudomonas aeruginosa” value in assay [4] is over 20000 ppm. The “MIC values Escherichia coli” value in assay [5] is listed as 2500 ppm.
Take `CCCCC(O)CO` (stereo not drawn) [HD, 1,2-Hexanediol]: the Colony counts is on record as 305.000 cfu/g formulation in [6] (day 0, 3.0% in formulation); 306.000 cfu/g formulation in assay [6] (day 2, 3.0% in formulation); 266.000 cfu/g formulation in [6] (day 7, 3.0% in formulation); 96.000 cfu/g formulation in assay [6] (day 14, 3.0% in formulation); under 100 cfu/g formulation in [6] (day 28, 3.0% in formulation). Further, the Relative colony counts worked out at 1.0000 in assay [6] (day 0, 3.0% in formulation); 1.0033 in assay [6] (day 2, 3.0% in formulation); 0.8721 in [6] (day 7, 3.0% in formulation); 0.3148 in [6] (day 14, 3.0% in formulation); 0.0003 in assay [6] (day 28, 3.0% in formulation). In addition, the minimal inhibitory concentration (MIC) in assay [1] (DIN 58940) is 20000 µg/mL; in assay [2] (DIN 58940), 20000 µg/mL; in assay [3] (DIN 58940), 10000 µg/mL; in [4] (DIN 58940), 10000 µg/mL; in [5] (DIN 58940) it was 10000 µg/mL.
For the compound `CCCCCCCOCC(O)CO` (stereo not drawn) [Heptylglycerin], the “MIC values Staphylococcus aureus” value in assay [1] (DIN 58940) is 2500 ppm. Moreover, in [2] (DIN 58940), the “MIC values Candida albicans” value was 2000 ppm. In assay [3] (DIN 58940), the “MIC values Aspergillus brasiliensis” value was determined as 1000 ppm. The “MIC values Pseudomonas aeruginosa” value in [4] (DIN 58940) was found to be 5000 ppm. In assay [5] (DIN 58940), the “MIC values Escherichia coli” value worked out at 2000 ppm.
Regarding `CCCCCCOC[C@@H](O)CO` [Hexylglycerin], the “MIC values Staphylococcus aureus” value in assay [1] (DIN 58940) was 6000 ppm. Moreover, the “MIC values Candida albicans” value in assay [2] (DIN 58940) was determined as 6000 ppm. In addition, in assay [3] (DIN 58940), the “MIC values Aspergillus brasiliensis” value is 4000 ppm. In addition, in assay [4] (DIN 58940), the “MIC values Pseudomonas aeruginosa” value was 6000 ppm. The “MIC values Escherichia coli” value in assay [5] (DIN 58940) came out at 4000 ppm.
For the compound `CCCCCCCCOCC(O)CO` (stereo not drawn) [Octylglycerin], the “MIC values Staphylococcus aureus” value in assay [1] (DIN 58940) amounted to 1000 ppm. In addition, the “MIC values Candida albicans” value in [2] (DIN 58940) turned out to be 1000 ppm. The “MIC values Aspergillus brasiliensis” value in assay [3] (DIN 58940) is on record as 500 ppm. Also, the “MIC values Pseudomonas aeruginosa” value in assay [4] (DIN 58940) is reported as over 2000 ppm. Also, in assay [5] (DIN 58940), the “MIC values Escherichia coli” value is 1000 ppm.

As a reminder, the MIC is the lowest concentration that inhibits growth of the organism.
